Assay results: patent US20230372361A1, “USE OF OXYGENATED CHOLESTEROL SULFATES FOR TREATING INFLAMMATORY CONDITIONS” (Durect Corporation, priority 2020, published 2023)

How the values were obtained:
[1] = Metabolite profiling of plasma, urine, feces after intravenous dose (HPLC radiodetection, MS); type: in vivo, rats; conditions: iv 10 mg/kg
Method: Plasma pools were made from Group 1 rats at the 0.083, 0.25, 0.5, and 1-hour collection time points.
Urine pools were prepared for Group 2 at 0 to 6 and 6 to 12 hours post-dose. […] Four metabolites present at <10% relative observed intensity in at least 1 sample were M7 (<5% relative observed intensity), M16 (<3% relative observed intensity), M19 (<6% relative observed intensity), and M25 (<5% relative observed intensity).
Feces pools were prepared for Group 2 at 0 to 12, 12 to 24, and 24 to 48 hours post-dose.

DNMT1/3a/3b = DNMT1/3a/3b activities, overall statements; type: biochemical; conditions: for effect on enzymatic activities: controls
Method: For the DNMT1 activity assay, the substrate solution, 0.001 mg/ml Poly(dI-dC):Poly(dI-dC) in 50 mM Tris-HCl, pH 7.5, 50 mM NaCl, 5 mM EDTA, 5 mM DTT, 1 mM PMSF, 5% glycerol, 0.01% Brij35, 1% DMSO was used. For the DNMT3a/3b activity assay, 0.0075 mg/ml Lambda DNA in 50 mM Tris-HCl, pH 7.5, 50 mM NaCl, 5 mM EDTA, 5 mM DTT, 1 mM PMSF, 5% glycerol, 1% DMSO, was used. The indicated DNMT1, DNMT3a, or DNMT3b was added to the appropriate substrate solution and gently mixed. […] The mixtures were first incubated for 15 min, then ^3H-SAM was added to the reaction mixture to initiate the reaction, and the mixture was incubated for 60 min at 30° C. Following incubation, the reaction mixture was finally transferred to filter-paper for detection of radioactivity counts.

[2] = Metabolite profiling of plasma and feces after oral dose (radio-HPLC, HPLC/MS); design: species or system rats; conditions: Sprague Dawley, rat, in vivo, 75 mg/kg
Method: Radiolabeled components in plasma and feces extracts were profiled and identified using radio-high performance liquid chromatography (HPLC) and high performance liquid chromatography/mass spectrometry (HPLC/MS) methods.
Plasma pools were prepared for Group 1 (75 mg/kg, [14C]-25HC3S) samples collected at 2, 4, and 6 hours post-dose. […] One metabolite M29 was identified as 25-hydroxycholesterol with 37% ROI and a concentration of 1233 ng-equiv./g.
Feces pools were prepared for Group 2 (75 mg/kg, [^14C]-25HC3S) samples collected from 0 to 24, 24 to 48, 48 to 72, 72 to 96, 96 to 120, 120 to 144, and 144 to 168 hours post-dose. A total of eleven metabolites were identified. None of the metabolites were present at ≥5% of dose. Metabolites present at 2-5% of dose were M1(4.5% of total dose and 1%-69% ROI), M3 (4.6% of total dose and 1%-44% ROI), M4 (2.0% of total dose and 0%-10% ROI), M8 (3.1% of total dose and 1%-46% ROI), M29 (1.9% of total dose and 0%-2% ROI), and M30 (3.3% of total dose and 0%-5% ROI).

Compound	detection in plasma, urine, or feces samples [1]	effect on enzymatic activities (DNMT1/3a/3b)	further results
C[C@H](CCCC(C)(C)O)[C@H]1CC[C@H]2[C@@H]3CC=C4C[C@@H](O)CC[C@]4(C)[C@H]3CC[C@]12C [25HC, 25-Hydroxycholesterol, reference compound]	Neither desmosterol sulfate nor 25-hydroxycholesterol was detected		
C[C@@H](CO)CCC[C@@H](C)[C@H]1CC[C@H]2[C@@H]3CC=C4C[C@@H](O)CC[C@]4(C)[C@H]3CC[C@]12C [27HC, 27-Hydroxycholesterol]			effect on other enzymes (than DNMT-1) (DNMT1/3a/3b): had no effect on other enzymes
C[C@H](CCCC(C)(C)O)[C@H]1CC[C@H]2[C@@H]3CC=C4C[C@@H](O)CC[C@]4(C)[C@H]3CC[C@]12C [M29, 25-hydroxycholesterol]			ROI in feces [2]: 0-2%
CC(C)CCC[C@@H](C)[C@H]1CC[C@H]2[C@@H]3CC=C4C[C@@H](OS(=O)(=O)O)CC[C@]4(C)[C@H]3CC[C@]12C [Xol3S, 5-cholesten-3β-ol, 3-sulfate]		did not significantly affect enzymatic activities	
CC(C)CCC[C@@H](C)[C@H]1CC[C@H]2[C@@H]3CC=C4C[C@@H](O)CC[C@]4(C)[C@H]3CC[C@]12C [Xol, Cholesterol]		did not significantly affect enzymatic activities	
desmosterol sulfate	Neither desmosterol sulfate nor 25-hydroxycholesterol was detected		
